{
  "source": "patent US9113629B2",
  "about": "“4-amino-6-(4-substituted-phenyl)-picolinates and 6-amino-2-(4-substituted-phenyl)-pyrimidine-4-carboxylates and their use as herbicides” (DOW AGROSCIENCES LLC, priority 2013, dated 2015)",
  "key": {"[1]": {"test_system": "Key Broadleaf Weed and Crop Species", "assay": "Post-emergent Test II herbicidal activity (Table 5)", "format": "in vivo", "conditions": "post-emergence, 336 h, 14 days after application; for pest or weed control at 70 g/ha: application rate 70 g ai/ha; for pest or weed control at 140 g/ha: application rate 140 g ai/ha", "how_it_was_run": "(§1)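 Compounds, dissolved in 97:3 acetone/DMSO and diluted into an aqueous carrier containing crop oil concentrate and Triton X-155, are applied over the top of young plants at 187 L/ha. Injury is scored visually at 14 d, 0% meaning no effect and 100% complete kill.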"}, "[2]": {"test_system": "Key Grass and Sedge Weeds as well as Grass Crops", "assay": "Post-emergent Test II herbicidal activity (Table 6)", "format": "in vivo", "conditions": "post-emergence, 336 h; for pest or weed control at 70 g/ha: 70 g ai/ha; for pest or weed control at 140 g/ha: 140 g ai/ha", "how_it_was_run": "as §1"}, "[3]": {"conditions": "ABUTH: velvetleaf (Abutilon theophrasti), read-out: Visual Growth Reduction (%) 14 Days After Application, ABUTH"}, "[4]": {"conditions": "AMARE: redroot pigweed (Amaranthus retroflexus), read-out: Visual Growth Reduction (%) 14 Days After Application, AMARE"}, "[5]": {"conditions": "BRSNN: oilseed-rape, canola (Brassica napus), read-out: Visual Growth Reduction (%) 14 Days After Application, BRSNN"}, "[6]": {"conditions": "CHEAL: lambsquarters (Chenopodium album), read-out: Visual Growth Reduction (%) 14 Days After Application, CHEAL"}, "[7]": {"conditions": "EPHHL: wild poinsettia (Euphorbia heterophylla), read-out: Visual Growth Reduction (%) 14 Days After Application, EPHHL"}, "[8]": {"conditions": "HELAN: sunflower (Helianthus annuus), read-out: Visual Growth Reduction (%) 14 Days After Application, HELAN"}, "[9]": {"conditions": "CYPES: yellow nutsedge (Cyperus esculentus), read-out: Visual Growth Reduction (%) 14 Days After Application, CYPES"}, "[10]": {"conditions": "DIGSA: crabgrass (Digitaria sanguinalis), read-out: Visual Growth Reduction (%) 14 Days After Application, DIGSA"}, "[11]": {"conditions": "ECHCG: barnyardgrass (Echinochloa crus-galli), read-out: Visual Growth Reduction (%) 14 Days After Application, ECHCG"}, "[12]": {"conditions": "ORYSA: rice (Oryza sativa), crop, read-out: Visual Growth Reduction (%) 14 Days After Application, ORYSA"}, "[13]": {"conditions": "SETFA: giant foxtail (Setaria faberi), read-out: Visual Growth Reduction (%) 14 Days After Application, SETFA"}, "[14]": {"conditions": "SORVU: grain sorghum (Sorghum vulgare), read-out: Visual Growth Reduction (%) 14 Days After Application, SORVU"}, "[15]": {"conditions": "TRZSS (wheat, Triticum aestivum), crop, read-out: Visual Growth Reduction (%) 14 Days After Application, TRZSS"}, "[16]": {"conditions": "ZEAMX: maize, corn (Zea mays), crop, read-out: Visual Growth Reduction (%) 14 Days After Application, ZEAMX"}},
  "note": "Like-named read-outs stand apart in the source and are kept apart here.",
  "data": [
    {"smiles": "C=Cc1c(C(=O)OC)nc(-c2ccc(Cl)c(F)c2)c(F)c1N", "note": "[Compound 215, methyl 4-amino-6-(4-chloro-3-fluorophenyl)-5-fluoro-3-vinylpicolinate]", "values": [
      {"measurement": "pest or weed control at 70 g/ha", "setting": "[1]; [3]", "value": "95 to 100", "unit": "%"},
      {"measurement": "pest or weed control at 140 g/ha", "setting": "[1]; [3]", "value": "95 to 100", "unit": "%"},
      {"measurement": "pest or weed control at 70 g/ha", "setting": "[1]; [4]", "value": "95 to 100", "unit": "%"},
      {"measurement": "pest or weed control at 140 g/ha", "setting": "[1]; [4]", "value": "95 to 100", "unit": "%"},
      {"measurement": "pest or weed control at 70 g/ha", "setting": "[1]; [5]", "value": "95 to 100", "unit": "%"},
      {"measurement": "pest or weed control at 140 g/ha", "setting": "[1]; [5]", "value": "95 to 100", "unit": "%"},
      {"measurement": "pest or weed control at 70 g/ha", "setting": "[1]; [6]", "value": "95 to 100", "unit": "%"},
      {"measurement": "pest or weed control at 140 g/ha", "setting": "[1]; [6]", "value": "95 to 100", "unit": "%"},
      {"measurement": "pest or weed control at 70 g/ha", "setting": "[1]; [7]", "value": "95 to 100", "unit": "%"},
      {"measurement": "pest or weed control at 140 g/ha", "setting": "[1]; [7]", "value": "95 to 100", "unit": "%"},
      {"measurement": "pest or weed control at 70 g/ha", "setting": "[1]; [8]", "value": "95 to 100", "unit": "%"},
      {"measurement": "pest or weed control at 140 g/ha", "setting": "[1]; [8]", "value": "95 to 100", "unit": "%"},
      {"measurement": "pest or weed control at 70 g/ha", "setting": "[1]; VIOTR: wild pansy (Viola tricolor), read-out: Visual Growth Reduction (%) 14 Days After Application, VIOTR", "value": "0 to 29", "unit": "%"},
      {"measurement": "pest or weed control at 70 g/ha", "setting": "[2]; [9]", "value": "95 to 100", "unit": "%"},
      {"measurement": "pest or weed control at 140 g/ha", "setting": "[2]; [9]", "value": "95 to 100", "unit": "%"},
      {"measurement": "pest or weed control at 70 g/ha", "setting": "[2]; [10]", "value": "0 to 29", "unit": "%"},
      {"measurement": "pest or weed control at 140 g/ha", "setting": "[2]; [10]", "value": "0 to 29", "unit": "%"},
      {"measurement": "pest or weed control at 70 g/ha", "setting": "[2]; [11]", "value": "0 to 29", "unit": "%"},
      {"measurement": "pest or weed control at 140 g/ha", "setting": "[2]; [11]", "value": "95 to 100", "unit": "%"},
      {"measurement": "pest or weed control at 70 g/ha", "setting": "[2]; [12]", "value": "0 to 29", "unit": "%"},
      {"measurement": "pest or weed control at 140 g/ha", "setting": "[2]; [12]", "value": "0 to 29", "unit": "%"},
      {"measurement": "pest or weed control at 70 g/ha", "setting": "[2]; [13]", "value": "0 to 29", "unit": "%"},
      {"measurement": "pest or weed control at 140 g/ha", "setting": "[2]; [13]", "value": "0 to 29", "unit": "%"},
      {"measurement": "pest or weed control at 70 g/ha", "setting": "[2]; [14]", "value": "45 to 59", "unit": "%"},
      {"measurement": "pest or weed control at 140 g/ha", "setting": "[2]; [14]", "value": "60 to 74", "unit": "%"},
      {"measurement": "pest or weed control at 70 g/ha", "setting": "[2]; [15]", "value": "0 to 29", "unit": "%"},
      {"measurement": "pest or weed control at 140 g/ha", "setting": "[2]; [15]", "value": "0 to 29", "unit": "%"},
      {"measurement": "pest or weed control at 70 g/ha", "setting": "[2]; [16]", "value": "30 to 44", "unit": "%"},
      {"measurement": "pest or weed control at 140 g/ha", "setting": "[2]; [16]", "value": "45 to 59", "unit": "%"}
    ]}
  ]
}
